In patent US10745365B2, “Luminogenic and fluorogenic compounds and methods to detect molecules or conditions” (Promega Corporation, priority 2005, dated 2020):
Several values for one entry are separate records, joined by “and”; a condition that tells them apart may be missing. Equal values may be shown once.

Columns and labels:
[1] = target: T1, QuantiLum Luciferase (firefly luciferase) (Photinus pyralis, UniProt P08659); assay: pH titration of 7′-fluoroluciferin luciferase reaction; assay type: biochemical
T1 construct: purchased Promega Corporation El 70

[2] = target: T1, QuantiLum Luciferase (firefly luciferase); assay: ATP titration of luciferase reactions with luciferin and fluoroluciferins; assay type: biochemical
Protocol: AU compounds except 5’-fluoroluciferin and DTT were purchased from Sigma Chemical. To some of this reagent 5 mM ATP (Amersham/Invitrogen) was added, then serially diluted by half-logs to 0.05 mM. Reactions were initiated by adding equal volumes (0.1 ml) of reagent and DMEM medium (Gibco/Invitrogen) containing 0.1% Prionex® (Pentapharm) and 1.4×10-5 mg/ml QuantiLum™ Luciferase (Promega Corporation).
For ATP titrations for 7′-fluoroluciferin, reagent was created containing 200 mM HEPES, 200 mM PIPES, 1 mM CDTA, 0.5% Tergitol NP-9, 0.03% Benzyl dodecyldimethyl ammonium bromide, 30 mM thiourea, 10 mM magnesium sulfate, and 0.15 mM 7′-fluoroluciferin. This solution was separated into 3 parts and pH of the reagents were 7.4, 7.2 and 6.7. To some of this reagent, 10 mM ATP (Amersham/Invitrogen) was added. The ATP was serially diluted by quarter-logs from 10 mM to 0.32 mM.
Reactions were initiated by adding equal volumes (0.03 ml) of reagent and DMEM medium (Gibco/Invitrogen) containing 0.1% Prionex® (Pentapharm) and 1.4×10-5 mg/ml QuantiLum™ Luciferase (Promega Corporation).
Luminescence was measured for 0.5 seconds per well using Berthold Orion luminometer.

[3] = target: T1, QuantiLum Luciferase (firefly luciferase); assay: Luminescence spectra of fluoroluciferins; assay type: biochemical; settings: pH 7.4
Protocol: All compounds except fluoroluciferin and ATP were purchased from Sigma Chemical. ATP was purchased from Amersham/Invitrogen.
Spectra were measured using 0.5s integration with 1 nm increments on a Spex Fluorolog.

[4] = target: T2, human recombinant flavin-containing monooxygenase 3 (FMO 3) (Homo sapiens, UniProt P31513); assay: Two-step luminescent FMO 3 assay; assay type: biochemical; settings: fit of Table 33
T2 construct: purchased Sigma Chemical Company F-5053; host or cells: baculovirus infected insect cells (microsomes)
T2 sequence (P31513 1-532): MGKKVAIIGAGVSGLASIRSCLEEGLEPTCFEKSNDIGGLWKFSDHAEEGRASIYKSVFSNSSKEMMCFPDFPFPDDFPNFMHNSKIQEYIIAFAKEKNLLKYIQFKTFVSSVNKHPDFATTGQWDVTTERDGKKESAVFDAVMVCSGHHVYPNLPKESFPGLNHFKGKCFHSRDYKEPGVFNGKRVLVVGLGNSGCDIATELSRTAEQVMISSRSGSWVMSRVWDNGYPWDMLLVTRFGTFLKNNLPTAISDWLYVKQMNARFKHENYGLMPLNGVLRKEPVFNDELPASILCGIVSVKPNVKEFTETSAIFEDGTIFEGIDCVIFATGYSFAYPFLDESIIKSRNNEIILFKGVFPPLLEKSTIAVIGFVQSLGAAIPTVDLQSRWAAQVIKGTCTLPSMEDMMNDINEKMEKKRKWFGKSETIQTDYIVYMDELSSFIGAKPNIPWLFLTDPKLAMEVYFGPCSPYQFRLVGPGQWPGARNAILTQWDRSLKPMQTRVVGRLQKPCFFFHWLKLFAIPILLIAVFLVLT

[5] = target: T3, human recombinant monoamine oxidase A (MAO A) (Homo sapiens, UniProt P21397); assay: Two-step bioluminogenic MAO A substrate assay
T3 sequence (P21397 1-527): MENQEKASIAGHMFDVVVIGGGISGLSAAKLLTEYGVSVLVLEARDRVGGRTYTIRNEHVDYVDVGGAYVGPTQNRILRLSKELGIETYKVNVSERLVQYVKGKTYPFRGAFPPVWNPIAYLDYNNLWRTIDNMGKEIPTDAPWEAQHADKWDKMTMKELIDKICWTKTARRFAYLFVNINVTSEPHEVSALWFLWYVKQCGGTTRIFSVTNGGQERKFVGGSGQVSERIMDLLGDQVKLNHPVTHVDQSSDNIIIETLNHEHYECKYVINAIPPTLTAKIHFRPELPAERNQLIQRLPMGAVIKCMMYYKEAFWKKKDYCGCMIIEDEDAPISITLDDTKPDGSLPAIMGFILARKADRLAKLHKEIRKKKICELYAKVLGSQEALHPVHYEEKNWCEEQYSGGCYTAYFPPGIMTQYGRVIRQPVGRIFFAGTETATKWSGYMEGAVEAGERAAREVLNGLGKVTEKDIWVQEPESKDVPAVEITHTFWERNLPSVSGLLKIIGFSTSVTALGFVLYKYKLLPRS

[6] = Control without MAO: fluorescence of the fluorogenic derivative (MAO substituted with H2O)
Protocol: The fluorescent signal was then measured (excitation/emission=355/460 nm) on a Fluoroskan Ascent plate fluorometer.
This 90 μl contained 35 μl 200 mM Tricine pH 8.3, 35 μl 200 mM Tricine pH 8.7 (or water), 10 μl 200 mM MgSO4, and 10 μl of each substrate dilution.

[7] = target: T4, equine alcohol dehydrogenase (Equus caballus, UniProt P00327); assay: Effect of inhibitors on the conversion of luciferol by equine alcohol dehydrogenase; assay type: biochemical; settings: luciferol + equine ADH + NAD+ with 10 μl inhibitor solution, 37° C., 30 min; duplicates #1, #2 (controls 1023, 1087)
T4 construct: purchased Sigma Chem. Co. A9589
Protocol: Trichloroethanol solution: A 0.48 ml sample of 2,2,2, trichloroethanol (Aldrich T5480-5) was dissolved in water.
Reactions were initiated by addition of 1.5 μl of luciferol solution. Upon addition of the luciferol solution, the reactions were mixed and placed at 37° C.

CYP2C19 = CYP2C19 (Homo sapiens, UniProt P33261); assay: biochemical
[8] = tested on: human hepatocytes (CYP3A activity)
[9] = target: T3, human recombinant monoamine oxidase A (MAO A); assay: MAO A inhibition (IC50) with substrate MAO-11; assay type: biochemical; set-up: purchased Sigma Chemical Company M-7316; host or cells: baculovirus infected insect cells (microsomes)
[10] = target: T5, human recombinant monoamine oxidase B (MAO B) (Homo sapiens, UniProt P27338); assay: biochemical
T5 construct: purchased Sigma Chemical Company M-7441; host or cells: baculovirus infected insect cells (microsomes)
T5 sequence (P27338 1-520): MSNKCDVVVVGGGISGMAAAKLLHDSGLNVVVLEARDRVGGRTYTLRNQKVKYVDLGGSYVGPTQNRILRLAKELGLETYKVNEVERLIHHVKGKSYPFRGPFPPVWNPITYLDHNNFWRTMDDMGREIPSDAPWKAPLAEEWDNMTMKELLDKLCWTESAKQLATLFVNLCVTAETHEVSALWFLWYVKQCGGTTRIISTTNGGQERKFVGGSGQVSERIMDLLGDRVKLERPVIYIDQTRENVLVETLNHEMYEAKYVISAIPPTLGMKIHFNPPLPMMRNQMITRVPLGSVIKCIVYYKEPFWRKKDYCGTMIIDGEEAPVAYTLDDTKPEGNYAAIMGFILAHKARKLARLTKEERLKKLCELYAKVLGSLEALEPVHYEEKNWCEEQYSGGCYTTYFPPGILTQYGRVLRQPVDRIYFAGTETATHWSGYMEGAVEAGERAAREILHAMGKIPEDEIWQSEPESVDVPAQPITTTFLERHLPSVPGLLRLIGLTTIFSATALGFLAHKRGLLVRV

T1 sequence (P08659 whole entry): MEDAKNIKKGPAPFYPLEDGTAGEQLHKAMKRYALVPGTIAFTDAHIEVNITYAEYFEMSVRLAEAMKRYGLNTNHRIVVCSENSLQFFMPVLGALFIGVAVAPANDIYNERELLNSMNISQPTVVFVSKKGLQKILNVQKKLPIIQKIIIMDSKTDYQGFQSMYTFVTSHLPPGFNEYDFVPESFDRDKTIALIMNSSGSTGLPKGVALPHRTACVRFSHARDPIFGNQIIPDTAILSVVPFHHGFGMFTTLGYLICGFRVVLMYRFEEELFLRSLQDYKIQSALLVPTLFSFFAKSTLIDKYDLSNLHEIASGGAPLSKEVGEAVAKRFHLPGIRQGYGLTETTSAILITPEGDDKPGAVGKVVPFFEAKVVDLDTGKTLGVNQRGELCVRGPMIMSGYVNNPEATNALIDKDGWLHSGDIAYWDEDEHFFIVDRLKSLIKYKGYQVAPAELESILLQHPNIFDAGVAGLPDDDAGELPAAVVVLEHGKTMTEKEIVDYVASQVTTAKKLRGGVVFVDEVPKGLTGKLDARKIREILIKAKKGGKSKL
T4 sequence (P00327 whole entry): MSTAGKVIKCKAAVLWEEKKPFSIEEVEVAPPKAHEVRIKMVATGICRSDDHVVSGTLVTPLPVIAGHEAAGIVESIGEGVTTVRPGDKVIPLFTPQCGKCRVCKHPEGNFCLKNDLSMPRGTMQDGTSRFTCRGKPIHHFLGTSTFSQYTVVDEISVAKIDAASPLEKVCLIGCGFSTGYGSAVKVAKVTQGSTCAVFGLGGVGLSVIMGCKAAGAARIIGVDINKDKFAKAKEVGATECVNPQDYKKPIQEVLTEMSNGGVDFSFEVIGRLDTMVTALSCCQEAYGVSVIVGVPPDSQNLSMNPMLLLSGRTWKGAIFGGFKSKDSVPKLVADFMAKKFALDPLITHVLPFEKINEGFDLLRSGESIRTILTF
Chain of CYP2C19 (P33261 whole entry): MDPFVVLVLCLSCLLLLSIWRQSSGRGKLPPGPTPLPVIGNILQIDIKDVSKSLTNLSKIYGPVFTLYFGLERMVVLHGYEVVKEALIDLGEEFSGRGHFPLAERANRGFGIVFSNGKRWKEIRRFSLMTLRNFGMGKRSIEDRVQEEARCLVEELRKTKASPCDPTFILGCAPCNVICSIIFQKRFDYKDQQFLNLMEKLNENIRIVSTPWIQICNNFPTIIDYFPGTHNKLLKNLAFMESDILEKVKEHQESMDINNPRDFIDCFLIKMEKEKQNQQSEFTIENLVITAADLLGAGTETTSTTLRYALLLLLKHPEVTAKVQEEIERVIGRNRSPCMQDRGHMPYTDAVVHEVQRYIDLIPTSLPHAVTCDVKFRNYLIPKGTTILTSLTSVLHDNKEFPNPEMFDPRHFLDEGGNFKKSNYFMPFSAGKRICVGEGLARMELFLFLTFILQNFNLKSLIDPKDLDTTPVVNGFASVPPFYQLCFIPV

O=C(O)[C@H]1CSC(c2nc3ccc(O)c(F)c3s2)=N1 [7′-fluoroluciferin]
pH optima of firefly luciferase reaction [1]: ~7.5 | ATP requirement of luciferase reaction [2]: requirement for ATP is much higher | red shift of luminescence λmax from regular luciferin [3]: approximately 21 nm

CNCCCOc1ccc2nc(C3=N[C@@H](C(=O)O)CS3)ccc2c1 [MAO-7, 6-(3-methylaminopropoxy)quinolinyl-luciferin]
signal-to-background ratio at the Km value [4]: about 8.5 | MAO specificity by ratio RLUmax/Km ([5]; Table 25): more specific substrate for MAO A | signal-to-background ratio at the Km value ([5]; fit of Table 22): about 95

CNCCCOc1ccc2c(C)cc(=O)oc2c1 [MAO-F3, 7-(4-methyl-3-N-methylaminopropoxy)coumarin]
no MAO fluorescent signal ([6]; [MAO-F3] 0.21 μM): 48 | no MAO fluorescent signal ([6]; [MAO-F3] 863.75 μM): 6461

c1cn[nH]c1 [Pyrazol, pyrazol]
Relative Light Units [7]: 516.4 Relative Light Units and 490.7 Relative Light Units

NNC(=O)c1ccncc1 [isoniazid]
IC50 (CYP2C19): 76 µM

CC(=O)N1CCN(c2ccc(OCC3COC(Cn4ccnc4)(c4ccc(Cl)cc4Cl)O3)cc2)CC1 (stereo not shown) [ketoconazole]
CYP3A-dependent luminescence in hepatocytes [8]: inhibition by ketoconazole of both basal and rifampicin-induced activity

NCCc1ccccc1 [phenethylamine]
IC50 [9]: 134 ± 9 µM | IC50 [10]: 20 ± 2 µM
